Measurements as given in patent US20230183259A1, “Crystal Form Of Thiofuran Pyridazine Compound, Preparation Method Therefor And Application Thereof” (ZHEJIANG MEDICINE CO., LTD. XINCHANG PHARMACEUTICAL FACTORY, priority 2020, published 2023).

Assays:
Type in all cases: physicochemical
long-term stability test [1] = settings: 25° C.±2° C., relative humidity 60%±10%
Description: (§1) Stability tests were performed on the samples of Examples 1, 2, 3, 4 and 5. […] Please refer to the results of the acceleration test (40° C.±2° C., relative humidity 75%±5%) of Table 1 and the results of the long-term stability test (25° C.±2° C., relative humidity 60%±10%) of Table 2.

[2] = acceleration test (stability); settings: relative humidity 75%±5%; for (%) Impurity B (%) / Crystal form / appearance / Enantiomer (%) / Impurity A (%) / Impurity C (%) / Loss on drying (%) / Single largest impurity (%) / Total relevant substances (%) / content(%): 40° C.±2° C.
Description: as §1

long-term stability test [3] = settings: 36 months, temperature 25° C. ±2° C.; relative humidity 60%±5%

(S)-2-(4-fluorophenyl)-4-(piperidine-3-aminomethyl)thieno[2,3-d]pyridazine-7-carboxamide hydrochloride [Example 110601-1]
Crystal form (long-term stability test [1]; 0 month): unchanged | ImpurityB(%) (long-term stability test [1]; 0 month): 0.00% | Content (calculated by dried product )(%) (long-term stability test [1]; 0 month, hydrochloride): 99.1% | Enantiomers (%) (long-term stability test [1]; 0 month, hydrochloride): 0.11% | ImpurityA(%) (long-term stability test [1]; 0 month, hydrochloride): 0.36% | ImpurityC(%) (long-term stability test [1]; 0 month, hydrochloride): 0.03% | Loss on drying (%) (long-term stability test [1]; 0 month, hydrochloride): 7.1% | Single largest impurity (%) (long-term stability test [1]; 0 month, hydrochloride): 0.02% | Total relevant substances (%) (long-term stability test [1]; 0 month, hydrochloride): 0.47% | appearance (long-term stability test [1]; 0 month, hydrochloride): yellow crystalline powder | Crystal form (long-term stability test [1]; 3 months): unchanged | ImpurityB(%) (long-term stability test [1]; 3 months): 0.00% | ImpurityC(%) (long-term stability test [1]; 3 months): 0.02% | Content (calculated by dried product )(%) (long-term stability test [1]; 3 months, hydrochloride): 99.9% | Enantiomers (%) (long-term stability test [1]; 3 months, hydrochloride): 0.11% | ImpurityA(%) (long-term stability test [1]; 3 months, hydrochloride): 0.35% | Loss on drying (%) (long-term stability test [1]; 3 months, hydrochloride): 7.0% | Single largest impurity (%) (long-term stability test [1]; 3 months, hydrochloride): 0.02% | Total relevant substances (%) (long-term stability test [1]; 3 months, hydrochloride): 0.45% | appearance (long-term stability test [1]; 3 months, hydrochloride): yellow crystalline powder | Crystal form (long-term stability test [1]; 6 months): unchanged | ImpurityB(%) (long-term stability test [1]; 6 months): 0.00% | Content (calculated by dried product )(%) (long-term stability test [1]; 6 months, hydrochloride): 99.8% | Enantiomers (%) (long-term stability test [1]; 6 months, hydrochloride): 0.08% | ImpurityA(%) (long-term stability test [1]; 6 months, hydrochloride): 0.34% | ImpurityC(%) (long-term stability test [1]; 6 months, hydrochloride): 0.03% | Loss on drying (%) (long-term stability test [1]; 6 months, hydrochloride): 7.0% | Single largest impurity (%) (long-term stability test [1]; 6 months, hydrochloride): 0.02% | Total relevant substances (%) (long-term stability test [1]; 6 months, hydrochloride): 0.41% | appearance (long-term stability test [1]; 6 months, hydrochloride): yellow crystalline powder | Crystal form (long-term stability test [1]; 9 months): unchanged | ImpurityC(%) (long-term stability test [1]; 9 months): 0.02% | Content (calculated by dried product )(%) (long-term stability test [1]; 9 months, hydrochloride): 99.8% | Enantiomers (%) (long-term stability test [1]; 9 months, hydrochloride): 0.08% | ImpurityA(%) (long-term stability test [1]; 9 months, hydrochloride): 0.34% | ImpurityB(%) (long-term stability test [1]; 9 months, hydrochloride): 0.02% | Loss on drying (%) (long-term stability test [1]; 9 months, hydrochloride): 7.0% | Single largest impurity (%) (long-term stability test [1]; 9 months, hydrochloride): 0.03% | Total relevant substances (%) (long-term stability test [1]; 9 months, hydrochloride): 0.47% | appearance (long-term stability test [1]; 9 months, hydrochloride): yellow crystalline powder | Crystal form (long-term stability test [1]; 12 months): unchanged | ImpurityB(%) (long-term stability test [1]; 12 months): 0.01% | Single largest impurity (%) (long-term stability test [1]; 12 months): 0.02% | Content (calculated by dried product )(%) (long-term stability test [1]; 12 months, hydrochloride): 99.4% | Enantiomers (%) (long-term stability test [1]; 12 months, hydrochloride): 0.1% | ImpurityA(%) (long-term stability test [1]; 12 months, hydrochloride): 0.34% | ImpurityC(%) (long-term stability test [1]; 12 months, hydrochloride): 0.02% | Loss on drying (%) (long-term stability test [1]; 12 months, hydrochloride): 7.1% | Total relevant substances (%) (long-term stability test [1]; 12 months, hydrochloride): 0.43% | appearance (long-term stability test [1]; 12 months, hydrochloride): yellow crystalline powder | Crystal form (long-term stability test [1]; 18 months): unchanged | ImpurityB(%) (long-term stability test [1]; 18 months): 0.00% | Single largest impurity (%) (long-term stability test [1]; 18 months): 0.02% | Content (calculated by dried product )(%) (long-term stability test [1]; 18 months, hydrochloride): 99.5% | Enantiomers (%) (long-term stability test [1]; 18 months, hydrochloride): 0.07% | ImpurityA(%) (long-term stability test [1]; 18 months, hydrochloride): 0.37% | ImpurityC(%) (long-term stability test [1]; 18 months, hydrochloride): 0.04% | Loss on drying (%) (long-term stability test [1]; 18 months, hydrochloride): 7.0% | Total relevant substances (%) (long-term stability test [1]; 18 months, hydrochloride): 0.45% | appearance (long-term stability test [1]; 18 months, hydrochloride): yellow crystalline powder | Crystal form (long-term stability test [1]; 24 months): unchanged | Enantiomers (%) (long-term stability test [1]; 24 months): 0.08% | ImpurityB(%) (long-term stability test [1]; 24 months): 0.00% | ImpurityC(%) (long-term stability test [1]; 24 months): 0.02% | Single largest impurity (%) (long-term stability test [1]; 24 months): 0.02% | Content (calculated by dried product )(%) (long-term stability test [1]; 24 months, hydrochloride): 98.3% | ImpurityA(%) (long-term stability test [1]; 24 months, hydrochloride): 0.37% | Loss on drying (%) (long-term stability test [1]; 24 months, hydrochloride): 7.4% | Total relevant substances (%) (long-term stability test [1]; 24 months, hydrochloride): 0.43% | appearance (long-term stability test [1]; 24 months, hydrochloride): yellow crystalline powder | Crystal form (long-term stability test [1]; 36 months): unchanged | ImpurityC(%) (long-term stability test [1]; 36 months): 0.02% | Single largest impurity (%) (long-term stability test [1]; 36 months): 0.02% | Content (calculated by dried product )(%) (long-term stability test [1]; 36 months, hydrochloride): 99.9% | Enantiomers (%) (long-term stability test [1]; 36 months, hydrochloride): 0.07% | ImpurityA(%) (long-term stability test [1]; 36 months, hydrochloride): 0.38% | ImpurityB(%) (long-term stability test [1]; 36 months, hydrochloride): 0.02% | Loss on drying (%) (long-term stability test [1]; 36 months, hydrochloride): 7.3% | Total relevant substances (%) (long-term stability test [1]; 36 months, hydrochloride): 0.50% | appearance (long-term stability test [1]; 36 months, hydrochloride): yellow crystalline powder | (%) Impurity B (%) ([2]; 0 month): 0.00% | Crystal form ([2]; 0 month): unchanged | appearance ([2]; 0 month): yellow crystalline powder | Enantiomer (%) ([2]; 0 month, hydrochloride): 0.11% | Impurity A (%) ([2]; 0 month, hydrochloride): 0.36% | Impurity C (%) ([2]; 0 month, hydrochloride): 0.03% | Loss on drying (%) ([2]; 0 month, hydrochloride): 7.1% | Single largest impurity (%) ([2]; 0 month, hydrochloride): 0.02% | Total relevant substances (%) ([2]; 0 month, hydrochloride): 0.47% | content(%) ([2]; 0 month, hydrochloride): 99.1% | Crystal form ([2]; 1 month): unchanged | Impurity C (%) ([2]; 1 month): 0.02% | appearance ([2]; 1 month): yellow crystalline powder | (%) Impurity B (%) ([2]; 1 month, hydrochloride): 0.00% | Enantiomer (%) ([2]; 1 month, hydrochloride): 0.13% | Impurity A (%) ([2]; 1 month, hydrochloride): 0.34% | Loss on drying (%) ([2]; 1 month, hydrochloride): 7.1% | Single largest impurity (%) ([2]; 1 month, hydrochloride): 0.02% | Total relevant substances (%) ([2]; 1 month, hydrochloride): 0.46% | content(%) ([2]; 1 month, hydrochloride): 100.5% | Crystal form ([2]; 2 months): unchanged | appearance ([2]; 2 months): yellow crystalline powder | (%) Impurity B (%) ([2]; 2 months, hydrochloride): 0.00% | Enantiomer (%) ([2]; 2 months, hydrochloride): 0.11% | Impurity A (%) ([2]; 2 months, hydrochloride): 0.35% | Impurity C (%) ([2]; 2 months, hydrochloride): 0.02% | Loss on drying (%) ([2]; 2 months, hydrochloride): 7.1% | Single largest impurity (%) ([2]; 2 months, hydrochloride): 0.02% | Total relevant substances (%) ([2]; 2 months, hydrochloride): 0.44% | content(%) ([2]; 2 months, hydrochloride): 100.6% | (%) Impurity B (%) ([2]; 3 months): 0.00% | Crystal form ([2]; 3 months): unchanged | Impurity C (%) ([2]; 3 months): 0.02% | appearance ([2]; 3 months): yellow crystalline powder | Enantiomer (%) ([2]; 3 months, hydrochloride): 0.1% | Impurity A (%) ([2]; 3 months, hydrochloride): 0.33% | Loss on drying (%) ([2]; 3 months, hydrochloride): 7.0% | Single largest impurity (%) ([2]; 3 months, hydrochloride): 0.03% | Total relevant substances (%) ([2]; 3 months, hydrochloride): 0.44% | content(%) ([2]; 3 months, hydrochloride): 99.6% | (%) Impurity B (%) ([2]; 6 months): 0.00% | Crystal form ([2]; 6 months): unchanged | Impurity C (%) ([2]; 6 months): 0.02% | appearance ([2]; 6 months): yellow crystalline powder | Enantiomer (%) ([2]; 6 months, hydrochloride): 0.08% | Impurity A (%) ([2]; 6 months, hydrochloride): 0.30% | Loss on drying (%) ([2]; 6 months, hydrochloride): 7.0% | Single largest impurity (%) ([2]; 6 months, hydrochloride): 0.03% | Total relevant substances (%) ([2]; 6 months, hydrochloride): 0.41% | content(%) ([2]; 6 months, hydrochloride): 99.6%

(S)-2-(4-fluorophenyl)-4-(piperidine-3-aminomethyl)thieno[2,3-d]pyridazine-7-carboxamide hydrochloride [Example 1]
changes in moisture, related substances, optical isomers and contents under storage conditions ([2]; 6 months, temperature 40° C.±2° C.): no significant changes | changes in moisture, related substances, optical isomers and contents under storage conditions (long-term stability test [3]): no significant changes
